Measured values as given in paper PMC6572114, “Synthesis, Docking and Biological Evaluation of a Novel Class of Imidazothiazoles as IDO1 Inhibitors” (Molecules, 2019).
Read-outs that look alike come from different tables or passages of the source.

What was measured:
[1] = target: T1, purified recombinant human IDO1 (rhIDO1) (Homo sapiens, UniProt P14902); conditions: cited from earlier work
T1 construct: purchased Origene

[2] = target: T1, purified recombinant human IDO1 (rhIDO1); assay: rhIDO1 enzymatic assay (conversion of L-Trp to L-KYN, p-dimethylaminobenzaldehyde readout); assay type: biochemical; conditions: for inhibition at 1 µM: rhIDO1, compound 1 µM, mean ± SE of two independent experiments; for IC50: rhIDO1, concentration-response curves, at least three experiments in triplicate
Description: All the 22 synthesized compounds were then biologically evaluated (Table 1). The compounds were tested for their ability to inhibit human IDO1 in an enzyme-based assay using a purified recombinant human IDO1 (rhIDO1) enzyme (Table 1). Each compound (1 µM) was added to the reaction buffer and the rhIDO1 conversion of L-Trp to L-KYN was determined spectrophotometrically using p-dimethylaminobenzaldehyde. As reference, imidazothiazole compound 1-((3-(4-bromophenyl)-3aH-thieno [2,3-b]pyrrol-4-yl)methyl)-3-(4-cyanophenyl)urea, displaying an IC50 value of 0.08 µM, was chosen.
rhIDO1 activity was determined as follows. In brief, the standard reaction mixture (200 μL) contained 50 mM potassium phosphate buffer (KPB) (pH 6.5), 20 mM ascorbic acid (neutralized with NaOH and HCl) (Sigma Aldrich), 100 μg/mL catalase (Sigma Aldrich), 10 μM methylene blue (Alfa Aesar, Heysham, Lancashire, UK), 100 µM L-tryptophan (Sigma Aldrich), 50 nM rhIDO1 (Origene, Bologna, Italy), and dimethyl sulfoxide (DMSO) solution of the compound (4 μL). The reaction was carried out at 37 °C for 60 min and stopped by the addition of 40 μL of 30% (w/v) CCl3COOH. After heating at 50 °C for 15 min, the reaction mixture was centrifuged at 1500× g for 10 min. The supernatant (150 μL) was transferred into a well of a 96-well microplate and mixed with 150 μL of 2% (w/v) p-dimethylaminobenzaldehyde (Ehrlich’s reagent) in acetic acid. The yellow pigment derived from kynurenine was measured at 490 nm using an Ultramark Microplate Imaging System (Bio-Rad, Hercules, CA, USA). IC50 values were calculated from concentration-response curves obtained in at least three different experiments run in triplicate.

IDO1 = tested on: IDO1; design: method as in PMID 29398544; conditions: cited from earlier work

T1 sequence (P14902 whole entry): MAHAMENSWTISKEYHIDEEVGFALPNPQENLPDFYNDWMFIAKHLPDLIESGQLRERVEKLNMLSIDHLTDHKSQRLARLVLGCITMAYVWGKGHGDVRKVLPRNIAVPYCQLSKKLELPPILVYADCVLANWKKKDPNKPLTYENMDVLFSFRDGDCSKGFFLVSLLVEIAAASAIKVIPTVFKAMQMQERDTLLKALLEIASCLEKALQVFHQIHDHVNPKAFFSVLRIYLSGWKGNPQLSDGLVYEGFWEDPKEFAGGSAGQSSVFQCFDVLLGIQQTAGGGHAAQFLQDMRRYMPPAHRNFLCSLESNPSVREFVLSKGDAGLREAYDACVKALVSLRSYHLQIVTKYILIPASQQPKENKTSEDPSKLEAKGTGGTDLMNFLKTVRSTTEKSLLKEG

Structure (SMILES) | inhibition at 1 µM [2] | melting point | other results
N#Cc1ccc(NC(=O)NCC2=CN=C3SC=C(c4ccc(Br)cc4)C23)cc1 (stereo not shown) [1-((3-(4-bromophenyl)-3aH-thieno [2,3-b]pyrrol-4-yl)methyl)-3-(4-cyanophenyl)urea] | – | – | IC50 ([1]; rhIDO1, read-out: IC50 (rhIDO1)): 80 nM
Brc1ccc(-c2csc3ncc(Cn4cc(Cc5ccccc5)nn4)n23)cc1 [11a, 5-((4-Benzyl-1H-1,2,3-triazol-1-yl)methyl)-3-(4-bromophenyl)imidazo[2,1-b]thiazole] | 30 ± 6.7% | 106.5 to 107.5 °C | –
Brc1ccc(-c2csc3ncc(Cn4cc(-c5ccccc5)nn4)n23)cc1 [11b, 3-(4-Bromophenyl)-5-((4-phenyl-1H-1,2,3-triazol-1-yl)methyl)imidazo[2,1-b]thiazole] | 35 ± 2.7% | 199 to 199.5 °C (dec.) | –
COc1ccc(-c2cn(Cc3cnc4scc(-c5ccc(Br)cc5)n34)nn2)cc1 [11c, 3-(4-Bromophenyl)-5-((4-(4-methoxyphenyl)-1H-1,2,3-triazol-1-yl)methyl)imidazo[2,1-b]thiazole] | 57 ± 13% | 118 to 119 °C (dec.) | –
Nc1ccc(-c2cn(Cc3cnc4scc(-c5ccc(Br)cc5)n34)nn2)cc1 [11d, 4-(1-((3-(4-Bromophenyl)imidazo[2,1-b]thiazol-5-yl)methyl)-1H-1,2,3-triazol-4-yl)aniline] | 17 ± 1.2% | 117 to 118 °C (dec.) | –
N#Cc1ccc(-c2cn(Cc3cnc4scc(-c5ccc(Br)cc5)n34)nn2)cc1 [11e, 4-(1-((3-(4-Bromophenyl)imidazo[2,1-b]thiazol-5-yl)methyl)-1H-1,2,3-triazol-4-yl)benzonitrile] | 28 ± 1.5% | 190 to 191 °C (dec.) | –
N#CCc1ccc(-c2cn(Cc3cnc4scc(-c5ccc(Br)cc5)n34)nn2)cc1 [11f, 2-(4-(1-((3-(4-Bromophenyl)imidazo[2,1-b]thiazol-5-yl)methyl)-1H-1,2,3-triazol-4-yl)phenyl)acetonitrile] | 74 ± 5.8% | 121.5 to 122.5 °C | IC50 [2]: 500 ± 40 nM
Brc1ccc(-c2csc3ncc(Cn4cc(C5CC5)nn4)n23)cc1 [11g, 3-(4-Bromophenyl)-5-((4-cyclopropyl-1H-1,2,3-triazol-1-yl)methyl)imidazo[2,1-b]thiazole] | 61 ± 7.1% | 145.5 to 146.5 °C | –
OC1(c2cn(Cc3cnc4scc(-c5ccc(Br)cc5)n34)nn2)CCCCC1 [11h, 1-(1-((3-(4-Bromophenyl)imidazo[2,1-b]thiazol-5-yl)methyl)-1H-1,2,3-triazol-4-yl)cyclohexanol] | 35 ± 2.4% | 163.5 to 164.5 °C (dec.) | –
OCCCc1cn(Cc2cnc3scc(-c4ccc(Br)cc4)n23)nn1 [11i, 3-(1-((3-(4-Bromophenyl)imidazo[2,1-b]thiazol-5-yl)methyl)-1H-1,2,3-triazol-4-yl)propan-1-ol] | 0% | – | –
O=C(O)CCc1cn(Cc2cnc3scc(-c4ccc(Br)cc4)n23)nn1 [11j, 3-(1-((3-(4-Bromophenyl)imidazo[2,1-b]thiazol-5-yl)methyl)-1H-1,2,3-triazol-4-yl)propanoic acid] | 81 ± 7.9% | 148 to 148.5 °C (dec.) | IC50 [2]: 1100 ± 70 nM
N#CCCCCc1cn(Cc2cnc3scc(-c4ccc(Br)cc4)n23)nn1 [11k, 5-(1-((3-(4-Bromophenyl)imidazo[2,1-b]thiazol-5-yl)methyl)-1H-1,2,3-triazol-4-yl)pentanenitrile] | 62 ± 5.6% | – | –
O=C(Cn1cc(Cc2ccccc2)nn1)NCc1cnc2scc(-c3ccc(Br)cc3)n12 [12a, 2-(4-Benzyl-1H-1,2,3-triazol-1-yl)-N-((3-(4-bromophenyl)imidazo[2,1-b]thiazol-5-yl)methyl)acetamide] | 63 ± 4.3% | 177 to 177.5 °C | –
O=C(Cn1cc(-c2ccccc2)nn1)NCc1cnc2scc(-c3ccc(Br)cc3)n12 [12b, N-((3-(4-Bromophenyl)imidazo[2,1-b]thiazol-5-yl)methyl)-2-(4-phenyl-1H-1,2,3-triazol-1-yl)acetamide] | 61 ± 5.5% | 251.5 to 252.5 °C (dec.) | –
COc1ccc(-c2cn(CC(=O)NCc3cnc4scc(-c5ccc(Br)cc5)n34)nn2)cc1 [12c, N-((3-(4-Bromophenyl)imidazo[2,1-b]thiazol-5-yl)methyl)-2-(4-(4-methoxyphenyl)-1H-1,2,3-triazol-1-yl)acetamide] | 5 ± 1.2% | 183 to 184 °C | –
Nc1ccc(-c2cn(CC(=O)NCc3cnc4scc(-c5ccc(Br)cc5)n34)nn2)cc1 [12d, 2-(4-(4-Aminophenyl)-1H-1,2,3-triazol-1-yl)-N-((3-(4-bromophenyl)imidazo[2,1-b]thiazol-5-yl)methyl)acetamide] | 56 ± 4.7% | 217 to 218 °C (dec.) | –
N#Cc1ccc(-c2cn(CC(=O)NCc3cnc4scc(-c5ccc(Br)cc5)n34)nn2)cc1 [12e, N-((3-(4-Bromophenyl)imidazo[2,1-b]thiazol-5-yl)methyl)-2-(4-(4-cyanophenyl)-1H-1,2,3-triazol-1-yl)acetamide] | 50 ± 4.5% | 267 to 267.5 °C (dec.) | –
N#CCc1ccc(-c2cn(CC(=O)NCc3cnc4scc(-c5ccc(Br)cc5)n34)nn2)cc1 [12f, N-((3-(4-Bromophenyl)imidazo[2,1-b]thiazol-5-yl)methyl)-2-(4-(4-(cyanomethyl)phenyl)-1H-1,2,3-triazol-1-yl)acetamide] | 55 ± 7.2% | 231 to 231.5 °C | –
O=C(Cn1cc(C2CC2)nn1)NCc1cnc2scc(-c3ccc(Br)cc3)n12 [12g, N-((3-(4-Bromophenyl)imidazo[2,1-b]thiazol-5-yl)methyl)-2-(4-cyclopropyl-1H-1,2,3-triazol-1-yl)acetamide] | 70 ± 9.2% | 225 to 225.5 °C (dec.) | IC50 [2]: 200 ± 10 nM
O=C(Cn1cc(C2(O)CCCCC2)nn1)NCc1cnc2scc(-c3ccc(Br)cc3)n12 [12h, N-((3-(4-Bromophenyl)imidazo[2,1-b]thiazol-5-yl)methyl)-2-(4-(1-hydroxycyclohexyl)-1H-1,2,3-triazol-1-yl)acetamide] | 63 ± 4.1% | 165 to 166 °C | –
O=C(Cn1cc(CCCO)nn1)NCc1cnc2scc(-c3ccc(Br)cc3)n12 [12i, N-((3-(4-Bromophenyl)imidazo[2,1-b]thiazol-5-yl)methyl)-2-(4-(3-hydroxypropyl)-1H-1,2,3-triazol-1-yl)acetamide] | 45 ± 2.8% | 169 to 170 °C (dec.) | –
O=C(O)CCc1cn(CC(=O)NCc2cnc3scc(-c4ccc(Br)cc4)n23)nn1 [12j, 3-(1-(2-(((3-(4-Bromophenyl)imidazo[2,1-b]thiazol-5-yl)methyl)amino)-2-oxoethyl)-1H-1,2,3-triazol-4-yl)propanoic acid] | 33 ± 4.5% | 153 to 154 °C (dec.) | –
N#CCCCCc1cn(CC(=O)NCc2cnc3scc(-c4ccc(Br)cc4)n23)nn1 [12k, N-((3-(4-Bromophenyl)imidazo[2,1-b]thiazol-5-yl)methyl)-2-(4-(4-cyanobutyl)-1H-1,2,3-triazol-1-yl)acetamide] | 50 ± 11% | 179.5 to 180.5 °C | –
O=C(COC(=O)Cc1ccc(O)cc1)NCc1cnc2scc(-c3ccc(Br)cc3)n12 [compound 2] | – | – | ability to permeate the cell and inhibit IDO1 in a cell-based assay (IDO1): not able to significantly permeate the cell and to inhibit IDO1 in a cell-based assay
CN(CC(=O)NCc1cnc2scc(-c3ccc(Br)cc3)n12)C(=O)Cc1ccc([N+](=O)[O-])cc1 [compound 3] | – | – | IC50 ([1]; first series, published in 2018, read-out: IC50): 800 nM; ability to permeate the cell and inhibit IDO1 in a cell-based assay (IDO1): not able to significantly permeate the cell and to inhibit IDO1 in a cell-based assay
